Like-named read-outs stand apart in the source and are kept apart here.
Assays:
TRPA1 [1] = target: T1, TRPA1 (Homo sapiens, UniProt O75762); assay: TLR ligand-enhanced 45Ca+2 uptake in hTRPA1/CHO cells; format: cell-based; parameters: expressed in transfected cells
Description: (§1) Human lung fibroblast cells, CCD19-Lu (ATCC CCL-210) were obtained from American Type Culture Collection (ATCC; Rockville, MD, USA) and cultured in MEM supplemented with 10% FBS. Human pulmonary alveolar epithelial cell line A549 (ATCC CCL-185) was also obtained from ATCC and maintained in DMEM F-12 supplemented with 10% FBS. Both the cell types were cultured at 37°C in humidified air containing 5% CO2. Chinese hamster ovary (CHO) cells stably expressing human TRPA1 (hTRPA1/CHO), TRPV1 (hTRPV1/CHO), TRPV3 (hTRPV3/CHO), TRPV4 (hTRPV4/CHO and TRPM8 (hTRPM8/CHO were generated in-house and maintained in DMEM F-12 supplemented with 10% FBS and G418.
(§2) Fluorimetric and radiometric Ca^+2 influx assay was performed as described earlier. GRC 17536, GRC 17770, compound 7 or GRC 6211 was added to the cells 15 minutes prior to addition of agonist. Citric acid stock solution (1 M) was prepared in dH2O. Subsequent dilutions were made in Ca^+2, Mg^+2 free PBS (pH 7.3). No significant change in pH was observed upto 10 mM citric acid. At 30 mM concentration of citric acid, the pH of the solution dropped to 5.5. TLR ligands - LPS (10 µg/ml, TLR4), loxoribine (10 µM, TLR7) and ssRNA40 (1 µg/ml, TLR8) were dissolved in media and added to the cells for 16–18 hours. TRP selectivity of GRC 17536 and compound 7 was performed for TRPV1, TRPV3, TRPV4 and TRPM8 using Capsaicin (1 µM), 2-APB (1 mM), 4α-PDD (30 µM) and Icilin (250 nM) respectively, as agonist.

TRPA1 mRNA = assay: Real-time RT-PCR of TRPA1 mRNA in hTRPA1/CHO cells; format: cell-based, human; settings: pre-incubation with TLR ligand
Description: Total RNA was extracted from hTRPA1/CHO cells using TRI reagent (Sigma, St. Louise, MO, USA). 3 µg of RNA was reverse transcribed using iScript select cDNA synthesis kit (Biorad Hercules, CA, USA) according to the manufacturer's instructions to produce single-stranded cDNA. RT-PCR was performed with an real-time thermal cycler Eppendorf Mastercycler Ep (Eppendorf AG, Hamburg, Germany) using iTaq SYBR Green Supermix with ROX kit (Biorad Hercules, CA, USA) with human TRPA1 specific primers: 5′-[…]-3′(sense primer) and 5′-CTTTTATGTCTACTTG GGCACCTT-3′(antisense primer). RT-PCR reaction was carried out for 40 cycles at 94°C for 30 s, 60°C for 15 s and 60°C for 60 s. Data was interpreted using 2^(-ΔΔCT) Livak method of analysis.

TRPA1 [2] = target: T1, TRPA1; assay: TLR ligand-enhanced 45Ca+2 uptake in A549 cells; format: cell-based; parameters: A549 cells have been reported to express endogenous TRPA1; host or cells: A549
Description: as §1, §2

TRPA1 [3] = target: T1, TRPA1; assay: Citric acid-induced Ca+2 influx in CCD19-Lu cells; format: cell-based; parameters: A549 cells have been reported to express endogenous TRPA1; host or cells: A549
Description: as §1, §2

TRPA1 [4] = target: T1, TRPA1; assay: Citric acid-induced Ca+2 influx in A549 cells; format: cell-based; parameters: A549 cells have been reported to express endogenous TRPA1; host or cells: A549
Description: as §1, §2

TRPA1 [5] = target: T1, TRPA1; parameters: A549 cells have been reported to express endogenous TRPA1; host or cells: A549; method as in PMID 21848366; settings: A549 cells; read-out: IC50 with AITC as agonist; cited from earlier work
[6] = system: citric acid induced cough response; assay: Citric acid induced conscious cough model; format: in vivo, guinea pig; settings: 2 h before citric acid aerosol (0.4 M); for Inhibition of cough compared to vehicle: coughs recorded 10 minutes
Description: Male Hartley guinea pigs (200–600 g, Harlan, UK) were acclimatized in cages (20–22°C, with a light/dark cycle of 12/12 hours) before beginning of the experiments and were maintained on an ad lib standard guinea pig pellet diet and water containing dietary amounts of ascorbic acid.
Cough was detected both by pressure change and by sound and recorded with a Buxco cough analyzer (Buxco, Wilmington, NC, USA) as described earlier. Guinea pigs were randomly assigned to various test groups and were treated with different doses of GRC 17536 or Dextromethorphan i.p. before tussive challenge. The Vehicle control group received only 0.5% methyl cellulose. Two hours after i.p. administration of vehicle or test compounds, animals were placed in individual whole body plethysmographs and were exposed to citric acid aerosol (0.4 M) and the incidences of cough were recorded for 10 minutes with the help of Buxco cough analyzer.
For in vitro experiments, data was analyzed using GraphPad Prism 3.0 (GraphPad Software Inc. San Diego, CA, USA). For in vivo experiment, data from the treatment groups were compared with the control group. Mean values were statistically analyzed by one-way analysis of variance (ANOVA) followed by the Dunnett's Multiple Comparisons Test to evaluate significant differences between groups.

TRPM8 = target: T2, TRPM8 (Homo sapiens, UniProt Q7Z2W7); assay: TRP selectivity, hTRPM8/CHO, Icilin as agonist; format: cell-based; settings: agonist Icilin (250 nM)
T2 construct: expressed in transfected cells
T2 sequence (Q7Z2W7 whole entry): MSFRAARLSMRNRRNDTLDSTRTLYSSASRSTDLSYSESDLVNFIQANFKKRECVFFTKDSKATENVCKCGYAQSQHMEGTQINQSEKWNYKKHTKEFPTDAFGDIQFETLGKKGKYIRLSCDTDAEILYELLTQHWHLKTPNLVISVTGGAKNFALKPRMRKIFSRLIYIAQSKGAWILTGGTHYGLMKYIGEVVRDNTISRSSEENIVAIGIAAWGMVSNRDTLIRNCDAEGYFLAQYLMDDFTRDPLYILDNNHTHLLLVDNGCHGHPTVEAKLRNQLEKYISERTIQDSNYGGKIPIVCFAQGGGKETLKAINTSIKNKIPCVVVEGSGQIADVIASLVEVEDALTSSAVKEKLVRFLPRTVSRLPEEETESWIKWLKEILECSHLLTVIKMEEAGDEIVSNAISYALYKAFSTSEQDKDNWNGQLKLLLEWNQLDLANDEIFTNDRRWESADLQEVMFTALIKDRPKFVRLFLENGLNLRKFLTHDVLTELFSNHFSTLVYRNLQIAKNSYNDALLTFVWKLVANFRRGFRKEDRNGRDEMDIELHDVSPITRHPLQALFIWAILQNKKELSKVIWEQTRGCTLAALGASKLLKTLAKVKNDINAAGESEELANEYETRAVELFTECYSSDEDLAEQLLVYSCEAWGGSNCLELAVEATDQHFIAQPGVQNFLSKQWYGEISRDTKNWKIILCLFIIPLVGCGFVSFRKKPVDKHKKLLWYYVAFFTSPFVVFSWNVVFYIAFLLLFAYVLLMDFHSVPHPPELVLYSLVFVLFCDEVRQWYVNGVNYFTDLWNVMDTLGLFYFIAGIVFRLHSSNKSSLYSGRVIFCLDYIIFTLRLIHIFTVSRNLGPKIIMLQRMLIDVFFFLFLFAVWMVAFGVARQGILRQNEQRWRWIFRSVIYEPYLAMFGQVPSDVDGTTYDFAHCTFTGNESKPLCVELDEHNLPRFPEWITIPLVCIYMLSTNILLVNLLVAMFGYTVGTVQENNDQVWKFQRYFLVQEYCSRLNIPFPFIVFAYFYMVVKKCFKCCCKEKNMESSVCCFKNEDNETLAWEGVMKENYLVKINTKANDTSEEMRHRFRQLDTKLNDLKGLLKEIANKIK
Description: as §1
as §2, with “TRP selectivity of GRC 17536 and compound 7 was performed for TRPV1, TRPV3, TRPV4 and TRPM8 using Capsaicin (1 µM), 2-APB (1 mM), 4α-PDD (30 µM) and Icilin (250 nM) respectively, as agonist.” left out

[7] = Plasma concentration in the cough model; format: in vivo; settings: at the EDmax dose (∼89% suppression of cough), guinea pig, i.p.
TRPA1 [8] = target: T1, TRPA1; assay: Citric acid-induced Ca+2 influx in hTRPA1/CHO cells; format: cell-based; parameters: expressed in transfected cells; settings: antagonist added 15 minutes prior to agonist, read-out: IC50, inhibition of citric acid induced Ca+2 influx
Description: as §1, §2

TRPA1 [9] = target: T1, TRPA1; parameters: method as in PMID 21848366; settings: CCD19-Lu cells; read-out: IC50 with AITC as agonist; cited from earlier work
TRPV4 = target: T3, TRPV4 (Homo sapiens, UniProt Q9HBA0); assay: TRP selectivity, hTRPV4/CHO, 4α-PDD as agonist; format: cell-based; settings: agonist 4α-PDD (30 µM)
T3 construct: expressed in transfected cells
T3 sequence (Q9HBA0 whole entry): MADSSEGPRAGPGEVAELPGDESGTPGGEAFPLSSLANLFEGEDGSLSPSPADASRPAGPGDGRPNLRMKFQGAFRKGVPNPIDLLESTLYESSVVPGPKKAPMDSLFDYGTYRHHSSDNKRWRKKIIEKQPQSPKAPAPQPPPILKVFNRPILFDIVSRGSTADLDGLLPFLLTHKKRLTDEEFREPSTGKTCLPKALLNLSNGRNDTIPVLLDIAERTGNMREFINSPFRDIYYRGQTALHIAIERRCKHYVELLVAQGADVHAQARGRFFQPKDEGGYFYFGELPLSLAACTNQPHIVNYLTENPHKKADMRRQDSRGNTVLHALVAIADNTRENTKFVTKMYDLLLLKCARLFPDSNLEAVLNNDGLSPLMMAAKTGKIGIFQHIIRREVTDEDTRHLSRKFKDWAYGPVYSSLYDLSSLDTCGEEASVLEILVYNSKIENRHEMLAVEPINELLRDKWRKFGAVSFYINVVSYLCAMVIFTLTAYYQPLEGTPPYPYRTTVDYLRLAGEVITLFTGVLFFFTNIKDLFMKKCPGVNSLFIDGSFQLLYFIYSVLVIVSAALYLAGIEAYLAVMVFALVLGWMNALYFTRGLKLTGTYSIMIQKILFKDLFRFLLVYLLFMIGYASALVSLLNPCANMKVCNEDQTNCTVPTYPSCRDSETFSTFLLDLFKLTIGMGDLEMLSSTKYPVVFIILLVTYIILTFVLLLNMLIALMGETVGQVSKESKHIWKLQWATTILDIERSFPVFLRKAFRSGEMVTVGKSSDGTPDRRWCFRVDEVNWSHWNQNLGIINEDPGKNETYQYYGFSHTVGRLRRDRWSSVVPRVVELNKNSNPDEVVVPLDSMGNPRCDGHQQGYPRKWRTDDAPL
Description: as §1
as §2, with “TRP selectivity of GRC 17536 and compound 7 was performed for TRPV1, TRPV3, TRPV4 and TRPM8 using Capsaicin (1 µM), 2-APB (1 mM), 4α-PDD (30 µM) and Icilin (250 nM) respectively, as agonist.” left out

TRPV1 = target: T4, TRPV1 (Homo sapiens, UniProt Q8NER1); assay: TRP selectivity, hTRPV1/CHO, Capsaicin as agonist; format: cell-based; settings: agonist Capsaicin (1 µM)
T4 construct: expressed in transfected cells
T4 sequence (Q8NER1 whole entry): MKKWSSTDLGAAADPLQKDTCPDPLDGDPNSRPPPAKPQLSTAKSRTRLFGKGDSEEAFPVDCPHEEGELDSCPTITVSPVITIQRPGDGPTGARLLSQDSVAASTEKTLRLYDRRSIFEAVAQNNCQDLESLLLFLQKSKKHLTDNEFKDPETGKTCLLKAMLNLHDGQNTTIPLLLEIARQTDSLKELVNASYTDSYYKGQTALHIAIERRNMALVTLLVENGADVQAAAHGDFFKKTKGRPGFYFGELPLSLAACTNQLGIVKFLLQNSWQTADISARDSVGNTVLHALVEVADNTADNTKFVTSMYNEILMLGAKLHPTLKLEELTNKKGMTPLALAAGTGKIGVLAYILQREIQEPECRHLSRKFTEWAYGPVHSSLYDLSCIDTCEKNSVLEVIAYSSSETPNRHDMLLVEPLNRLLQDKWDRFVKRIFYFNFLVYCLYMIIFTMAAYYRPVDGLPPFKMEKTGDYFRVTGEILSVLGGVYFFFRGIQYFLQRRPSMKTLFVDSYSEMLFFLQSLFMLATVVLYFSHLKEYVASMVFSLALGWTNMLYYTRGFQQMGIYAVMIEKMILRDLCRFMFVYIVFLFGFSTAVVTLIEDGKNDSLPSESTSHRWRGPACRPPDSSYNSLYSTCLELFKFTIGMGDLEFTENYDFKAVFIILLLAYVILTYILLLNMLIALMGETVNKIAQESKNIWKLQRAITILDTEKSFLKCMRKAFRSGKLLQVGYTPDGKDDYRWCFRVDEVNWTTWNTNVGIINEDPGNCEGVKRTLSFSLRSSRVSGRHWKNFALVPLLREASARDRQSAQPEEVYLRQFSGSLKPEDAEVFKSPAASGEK
Description: as §1
as §2, with “TRP selectivity of GRC 17536 and compound 7 was performed for TRPV1, TRPV3, TRPV4 and TRPM8 using Capsaicin (1 µM), 2-APB (1 mM), 4α-PDD (30 µM) and Icilin (250 nM) respectively, as agonist.” left out

TRPV3 = target: T5, TRPV3 (Homo sapiens, UniProt Q8NET8); assay: TRP selectivity, hTRPV3/CHO, 2-APB as agonist; format: cell-based; settings: agonist 2-APB (1 mM)
T5 construct: expressed in transfected cells
T5 sequence (Q8NET8 1-790): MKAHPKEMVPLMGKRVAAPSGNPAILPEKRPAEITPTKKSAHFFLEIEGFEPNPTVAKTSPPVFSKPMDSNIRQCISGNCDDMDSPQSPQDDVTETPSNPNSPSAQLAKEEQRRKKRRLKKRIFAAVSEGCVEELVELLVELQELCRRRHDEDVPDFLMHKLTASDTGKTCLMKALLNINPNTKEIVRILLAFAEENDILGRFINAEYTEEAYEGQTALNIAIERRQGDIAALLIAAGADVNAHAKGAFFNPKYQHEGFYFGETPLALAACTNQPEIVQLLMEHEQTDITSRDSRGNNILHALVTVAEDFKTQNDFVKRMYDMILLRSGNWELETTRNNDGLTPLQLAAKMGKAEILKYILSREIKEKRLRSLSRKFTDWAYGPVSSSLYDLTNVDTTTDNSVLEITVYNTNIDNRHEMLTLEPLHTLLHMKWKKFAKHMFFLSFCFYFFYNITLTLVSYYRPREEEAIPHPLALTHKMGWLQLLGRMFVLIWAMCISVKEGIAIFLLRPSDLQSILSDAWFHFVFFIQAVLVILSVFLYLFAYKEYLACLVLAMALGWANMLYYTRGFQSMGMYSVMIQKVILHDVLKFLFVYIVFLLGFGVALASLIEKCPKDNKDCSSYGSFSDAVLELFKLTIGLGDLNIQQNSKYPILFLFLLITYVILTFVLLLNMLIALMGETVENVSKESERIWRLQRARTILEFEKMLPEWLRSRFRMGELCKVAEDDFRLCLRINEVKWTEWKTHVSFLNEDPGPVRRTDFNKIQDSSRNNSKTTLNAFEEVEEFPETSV
Description: as §1
as §2, with “TRP selectivity of GRC 17536 and compound 7 was performed for TRPV1, TRPV3, TRPV4 and TRPM8 using Capsaicin (1 µM), 2-APB (1 mM), 4α-PDD (30 µM) and Icilin (250 nM) respectively, as agonist.” left out

[10] = antagonist added 15 minutes prior to agonist, read-out: IC50, inhibition of citric acid induced Ca+2 influx

T1 sequence (O75762 whole entry): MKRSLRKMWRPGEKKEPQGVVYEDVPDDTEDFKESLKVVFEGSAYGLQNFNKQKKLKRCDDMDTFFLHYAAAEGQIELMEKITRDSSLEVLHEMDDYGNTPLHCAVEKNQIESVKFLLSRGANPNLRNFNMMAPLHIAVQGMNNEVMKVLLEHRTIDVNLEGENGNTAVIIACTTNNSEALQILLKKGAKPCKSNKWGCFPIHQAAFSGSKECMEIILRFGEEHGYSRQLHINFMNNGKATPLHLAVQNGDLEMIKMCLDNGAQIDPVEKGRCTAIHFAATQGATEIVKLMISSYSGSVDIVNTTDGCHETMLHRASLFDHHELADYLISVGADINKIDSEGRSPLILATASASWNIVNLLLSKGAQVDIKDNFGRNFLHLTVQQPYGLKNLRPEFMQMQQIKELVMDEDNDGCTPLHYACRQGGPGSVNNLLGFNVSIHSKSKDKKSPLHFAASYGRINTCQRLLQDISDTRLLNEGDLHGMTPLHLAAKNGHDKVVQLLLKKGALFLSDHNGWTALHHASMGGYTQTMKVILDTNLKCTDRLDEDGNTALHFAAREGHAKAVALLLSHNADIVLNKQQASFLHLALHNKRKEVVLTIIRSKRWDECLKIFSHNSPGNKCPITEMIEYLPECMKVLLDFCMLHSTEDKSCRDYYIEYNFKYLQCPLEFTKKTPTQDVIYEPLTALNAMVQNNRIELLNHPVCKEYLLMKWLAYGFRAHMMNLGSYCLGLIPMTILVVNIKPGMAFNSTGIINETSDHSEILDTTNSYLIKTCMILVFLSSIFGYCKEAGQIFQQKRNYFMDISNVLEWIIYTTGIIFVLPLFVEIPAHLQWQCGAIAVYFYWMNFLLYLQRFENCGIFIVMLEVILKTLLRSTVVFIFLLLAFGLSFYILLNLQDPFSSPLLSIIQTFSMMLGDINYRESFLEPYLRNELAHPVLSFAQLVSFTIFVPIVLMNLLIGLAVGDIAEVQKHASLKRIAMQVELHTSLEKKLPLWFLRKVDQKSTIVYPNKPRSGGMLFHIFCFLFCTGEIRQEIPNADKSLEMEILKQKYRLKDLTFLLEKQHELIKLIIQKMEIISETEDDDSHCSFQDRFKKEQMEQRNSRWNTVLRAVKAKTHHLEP

With `C=CCn1c(=O)n([C@@H]2O[C@H](CO)[C@@H](O)[C@H]2O)c2nc(N)[nH]c(=O)c21` [Loxoribine, reference compound] the “Increase in 45Ca+2 uptake over AITC alone” value (TRPA1 [1]; hTRPA1/CHO, pre-treatment Loxoribine 10 µM or ssRNA40 1 µg/ml, 16-18 hours) was 20%, the “Increase in 45Ca+2 uptake by TLR ligand alone” value (TRPA1 [1]; ligand alone, no TRPA1 agonist, 'these cells', data not shown) was “did not show any increase” and the “TRPA1 mRNA levels compared to control” value (TRPA1 mRNA) was “enhance TRPA1 expression”. For the same compound, the “Enhancement of AITC mediated 45Ca+2 uptake” value (TRPA1 [2]; A549 cells, TLR ligand pre-treatment 16-18 hours) was 30%.

In the case of `O=C(Nc1cccc2cnccc12)N[C@@H]1CC2(CCC2)Oc2ccc(F)cc21` [GRC 6211], the “Inhibition of citric acid induced increase in Ca+2” value (TRPA1 [3]; up to 10 µM antagonist) is reported as “failed to inhibit” and the “Inhibition of citric acid induced increase in Ca+2” value (TRPA1 [4]; up to 10 µM antagonist) is reported as “failed to inhibit”.

For `Cn1c(=O)c2c(CC(=O)Nc3nc(-c4ccc(F)c(C(F)(F)F)c4F)cs3)csc2n(C)c1=O` [GRC 17536], the IC50 (TRPA1 [5]) is given as 2.06 nM, the “Inhibition of cough response” value ([6]; 30 mg/kg i.p.) is given as “no significant protective response” and the “Inhibition of cough compared to vehicle” value ([6]; 60 mg/kg i.p.) is given as 79%. The “Inhibition of cough compared to vehicle” value ([6]; 100 mg/kg i.p.) was 89%, the “% Inhibition at 1 µM, TRPM8” value (TRPM8) was 8.6% and the “Free mean plasma concentration” value [7] was “around its in vitro IC50 value”. For the same compound, the IC50 (TRPA1 [8]) was 4.6 nM, the “Inhibition of LPS + AITC induced 45Ca+2 uptake” value (TRPA1 [1]; hTRPA1/CHO, 10 nM) was 51.3% and the “Inhibition of Loxoribine + AITC induced 45Ca+2 uptake” value (TRPA1 [1]; hTRPA1/CHO, 10 nM) was 56.6%. For the same compound, the “Inhibition of ssRNA40 + AITC induced 45Ca+2 uptake” value (TRPA1 [1]; hTRPA1/CHO, 10 nM) was 63.0%, the “Inhibition of TLR ligand-enhanced 45Ca+2 uptake (summary)” value (TRPA1 [1]; hTRPA1/CHO, 10 nM, stated for both cell types) was roughly 50% and the “Inhibition of 45Ca+2 uptake at the highest concentration (summary)” value (TRPA1 [1]; hTRPA1/CHO, 1 µM) was “Complete inhibition”. The “Inhibition of LPS + AITC induced 45Ca+2 uptake” value (TRPA1 [1]; hTRPA1/CHO, 1 µM) was 98.4%, the “Inhibition of Loxoribine + AITC induced 45Ca+2 uptake” value (TRPA1 [1]; hTRPA1/CHO, 1 µM) was 98.6% and the “Inhibition of ssRNA40 + AITC induced 45Ca+2 uptake” value (TRPA1 [1]; hTRPA1/CHO, 1 µM) was 96.1%. For the same compound, the IC50 (TRPA1 [9]) was 2.71 nM, the IC50 (TRPA1 [3]; [10]) was 8.2 nM and the “Inhibition of LPS + AITC induced 45Ca+2 uptake” value (TRPA1 [2]; A549, 10 nM) was 40.4%. The “Inhibition of Loxoribine + AITC induced 45Ca+2 uptake” value (TRPA1 [2]; A549, 10 nM) was 68.1%, the “Inhibition of ssRNA40 + AITC induced 45Ca+2 uptake” value (TRPA1 [2]; A549, 10 nM) was 53.2% and the “Inhibition of TLR ligand-enhanced 45Ca+2 uptake (summary)” value (TRPA1 [2]; A549, 10 nM, stated for both cell types) was roughly 50%. For the same compound, the “Inhibition of 45Ca+2 uptake at the highest concentration (summary)” value (TRPA1 [2]; A549, 1 µM) was “Complete inhibition”, the “Inhibition of LPS + AITC induced 45Ca+2 uptake” value (TRPA1 [2]; A549, 1 µM) was 95.3% and the “Inhibition of Loxoribine + AITC induced 45Ca+2 uptake” value (TRPA1 [2]; A549, 1 µM) was 97.4%. For the same compound, the “Inhibition of ssRNA40 + AITC induced 45Ca+2 uptake” value (TRPA1 [2]; A549, 1 µM) was 98.7%, the “% Inhibition at 1 µM, TRPV4” value (TRPV4) was 8.2% and the “% Inhibition at 1 µM, TRPV1” value (TRPV1) was 5.6%. The IC50 (TRPA1 [4]; [10]) was 5 nM and the “% Inhibition at 1 µM, TRPV3” value (TRPV3) was 27.3%.

From publication PMC4018403, “Transient Receptor Potential Ankyrin 1 Receptor Activation In Vitro and In Vivo by Pro-tussive Agents: GRC 17536 as a Promising Anti-Tussive Therapeutic” (PLoS ONE, 2014)
